Results taken from ChEMBL document CHEMBL1201862, “PubChem BioAssay data set” (2004).
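Where inhibition never reached the appropriate level, the endpoint shown equals the highest concentration tested. Otherwise, values were interpolated linearly from a five-concentration, 48-hour dose response in 96-well plates. GI50 marks 50% less growth.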 Active and inactive are the calls of the source. Rule as the data show it: active = GI50 up to about 1.1 µM and inactive = higher.

Experiments:
Assay in all cases: NCI tumour cell line growth inhibition, 48 h
UACC-257 = test system: UACC-257
DMS-273 = test system: DMS-273
NCI-H460 = test system: NCI-H460
HT-29 = test system: HT-29
HL-60 = test system: HL-60
LXFL 529 = test system: LXFL 529
DLD-1 = test system: DLD-1
Malme-3M = test system: Malme-3M
SNB-75 = test system: SNB-75
NCI-H522 = test system: NCI-H522
TK-10 = test system: TK-10
COLO 205 = test system: COLO 205
RPMI-8226 = test system: RPMI-8226
HOP-62 = test system: HOP-62
NCI-H226 = test system: NCI-H226
U-251 = test system: U-251
SF-268 = test system: SF-268
UO-31 = test system: UO-31
A498 = test system: A498
SNB-78 = test system: SNB-78
CAKI-1 = test system: CAKI-1
SK-MEL-28 = test system: SK-MEL-28
786-0 = test system: 786-0
RXF 393 = test system: RXF 393
RXF 631 = test system: RXF 631
K562 = test system: K562
EKVX = test system: EKVX
DMS-114 = test system: DMS-114
MOLT-4 = test system: MOLT-4
HCT-15 = test system: HCT-15
SN12C = test system: SN12C
SK-OV-3 = test system: SK-OV-3
XF498 = test system: XF498
SF-539 = test system: SF-539
UACC-62 = test system: UACC-62
CCRF-CEM = test system: CCRF-CEM
HCT-116 = test system: HCT-116
LOX IMVI = test system: LOX IMVI
SW-620 = test system: SW-620
SR = test system: SR
ACHN = test system: ACHN
OVCAR-8 = test system: OVCAR-8
SK-MEL-2 = test system: SK-MEL-2
M14 = test system: M14
NCI-H23 = test system: NCI-H23
SF-295 = test system: SF-295
SNB-19 = test system: SNB-19
KM12 = test system: KM12
HCC 2998 = test system: HCC 2998
A549 = test system: A549
IGROV-1 = test system: IGROV-1
HOP-92 = test system: HOP-92
M19-MEL = test system: M19-MEL
OVCAR-4 = test system: OVCAR-4
KM-20L2 = test system: KM-20L2
OVCAR-5 = test system: OVCAR-5
OVCAR-3 = test system: OVCAR-3
HOP-18 = test system: HOP-18

Measured: GI50

O=c1c2ccccc2[nH]c2c(O)ccc(O)c12
inactive: UACC-257 18.1 µM | DMS-273 16.6 µM | NCI-H460 24.9 µM | HT-29 38.6 µM | HL-60 2.64 µM | LXFL 529 15.1 µM | DLD-1 > 10 µM | Malme-3M 24 µM | SNB-75 > 10 µM | NCI-H522 15.1 µM | TK-10 26.3 µM | COLO 205 > 10 µM | RPMI-8226 22.8 µM | HOP-62 > 100 µM | NCI-H226 25.6 µM | U-251 15.1 µM | SF-268 25.4 µM | UO-31 37.7 µM | A498 38.3 µM | SNB-78 19 µM | CAKI-1 13.9 µM | SK-MEL-28 18.8 µM | 786-0 18.8 µM | RXF 393 11.7 µM | RXF 631 21.8 µM | K562 17.5 µM | EKVX > 41.7 µM | DMS-114 17.9 µM | MOLT-4 7.91 µM | SN12C 14.2 µM | SK-OV-3 25.7 µM | XF498 16.8 µM | SF-539 27.6 µM | UACC-62 16.7 µM | CCRF-CEM 5.58 µM | HCT-116 20.7 µM | LOX IMVI 17.8 µM | SW-620 18 µM | SR 7.33 µM | ACHN 17.3 µM | OVCAR-8 17.9 µM | SK-MEL-2 29.4 µM | M14 15.9 µM | NCI-H23 27.4 µM | SF-295 17.3 µM | SNB-19 38.7 µM | KM12 45.1 µM | HCC 2998 > 100 µM | A549 36.2 µM | IGROV-1 15.1 µM | HOP-92 18.8 µM | M19-MEL 24.9 µM | OVCAR-4 3.39 µM | KM-20L2 78.9 µM | OVCAR-5 > 76.9 µM | OVCAR-3 16.6 µM
17.9 µM: HCT-15

Cc1cc(C)c(C(=O)OC(c2ccccc2)C(c2ccccc2)N2CCOCC2)c(C)c1 (stereo not given)
> 100 µM: HCT-15
inactive: UACC-257 > 100 µM | DMS-273 > 100 µM | NCI-H460 > 100 µM | HT-29 > 100 µM | HL-60 44.6 µM | LXFL 529 > 100 µM | DLD-1 > 100 µM | Malme-3M > 100 µM | SNB-75 > 100 µM | NCI-H522 > 100 µM | TK-10 > 100 µM | COLO 205 > 100 µM | RPMI-8226 6.01 µM | HOP-62 > 100 µM | NCI-H226 > 100 µM | U-251 > 100 µM | SF-268 > 100 µM | UO-31 > 100 µM | A498 > 100 µM | SNB-78 > 100 µM | CAKI-1 > 100 µM | SK-MEL-28 > 100 µM | 786-0 > 100 µM | RXF 393 91 µM | RXF 631 > 100 µM | K562 > 100 µM | EKVX > 100 µM | DMS-114 > 100 µM | MOLT-4 93.3 µM | SN12C > 100 µM | SK-OV-3 > 100 µM | XF498 > 100 µM | SF-539 > 100 µM | UACC-62 > 100 µM | CCRF-CEM > 100 µM | HCT-116 > 100 µM | LOX IMVI > 100 µM | SW-620 > 100 µM | ACHN > 100 µM | HOP-18 > 100 µM | SK-MEL-2 > 100 µM | M14 > 100 µM | NCI-H23 > 100 µM | SF-295 > 100 µM | SNB-19 > 100 µM | KM12 > 100 µM | HCC 2998 > 100 µM | A549 > 100 µM | IGROV-1 > 100 µM | M19-MEL > 100 µM | KM-20L2 > 100 µM | OVCAR-3 > 100 µM
